Some test systems named below: LOX IMVI; HCT-116; IGROV-1; NCI/ADR-RES; M14; U-251; UACC-62; SW-620; EKVX; HCT-15; UO-31; KM12; HT-29; SNB-19; MDA-MB-435; SK-MEL-28; BT-549; MOLT-4; HOP-92; TK-10.
Common to all, as to experiment: inhibition of tumour cell growth, NCI panel, 48 h

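Five concentrations, 48 hours, 96-well plates. GI50 is the concentration that inhibits growth by half.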 Calls of active or inactive are those of the source. Cut-off read from the data, not from the text of the source: active = GI50 up to about 1.1 µM and inactive = higher.

As to `COc1cc2cc(C(=O)N3C[C@@H](CCl)c4c3cc(N)c3ccccc43)[nH]c2c(OC)c1OC`, the GI50 with LOX IMVI is 0.00313 µM (active); in the assay with HCT-116 it was 0.000301 µM (active); with IGROV-1 it was 0.00611 µM (active); in the assay on NCI/ADR-RES, 0.00332 µM (active); with M14, 0.00104 µM (active); in the assay on U-251, 0.00163 µM (active). The GI50 in the assay on UACC-62 was 0.000895 µM (active); with SW-620, 0.00201 µM (active); in the assay on EKVX it was 0.231 µM (active); in the assay with HCT-15 it was 0.000579 µM; with UO-31, 0.00622 µM (active); in the assay on KM12 it was 0.00216 µM (active). Moreover, the GI50 in the assay with HT-29 was 0.0735 µM (active); with SNB-19 it was 0.00665 µM (active); with MDA-MB-435, 0.000269 µM (active); with SK-MEL-28, < 0.01 µM (active); in the assay with BT-549 it was 0.0442 µM (active); in the assay with MOLT-4, 0.00557 µM (active). For the same compound, the results for the GI50 with HOP-92 and in the assay on TK-10 were 0.0048 µM (active) and < 0.01 µM (active), respectively.
For `CN1C(=O)C2(C)SC1(c1ccccc1)C1C(=O)N(c3ccccc3)C(=O)C12` (stereo not given), the GI50 is > 100 µM (inactive) in the assay with LOX IMVI; 70.8 µM (inactive) in the assay on HCT-116; 48 µM (inactive) in the assay on IGROV-1; 38.6 µM (inactive) in the assay with NCI/ADR-RES; > 100 µM (inactive) with M14; 67.9 µM (inactive) in the assay on U-251. For the same compound, the GI50 in the assay on UACC-62 is 65.3 µM (inactive); in the assay on SW-620, > 100 µM (inactive); in the assay with EKVX, 98.9 µM (inactive); in the assay on HCT-15 it was 66.4 µM; in the assay with UO-31, > 100 µM (inactive); with KM12, 66.1 µM (inactive). Moreover, the GI50 was 76.2 µM (inactive) in the assay on HT-29; > 100 µM (inactive) with SNB-19; 76 µM (inactive) in the assay with MDA-MB-435; > 100 µM (inactive) with SK-MEL-28; > 100 µM (inactive) in the assay on BT-549; 40.9 µM (inactive) in the assay on MOLT-4. Also, the GI50 in the assay on HOP-92 was 36.6 µM (inactive); in the assay on TK-10 it was 57.4 µM (inactive).
In the case of `CC(=O)Nc1cc2c3c(c1)CCCN3CCC2`, the GI50 in the assay with LOX IMVI, with HCT-116, with IGROV-1, with NCI/ADR-RES, in the assay with M14 and in the assay with U-251 was > 100 µM (inactive) throughout. The GI50 was > 100 µM (inactive) in the assay with UACC-62; > 100 µM (inactive) in the assay on SW-620; 64.9 µM (inactive) with EKVX; more than 100 µM in the assay with HCT-15; > 100 µM (inactive) in the assay on UO-31; > 100 µM (inactive) in the assay on KM12. For the same compound, the GI50 in the assay on HT-29, in the assay with SNB-19, with MDA-MB-435, in the assay on SK-MEL-28, in the assay with BT-549 and in the assay on MOLT-4 was > 100 µM (inactive) throughout. Further, the GI50 in the assay with HOP-92 and in the assay with TK-10 was > 100 µM (inactive) throughout.
With `O=C(CC(O)c1cccnc1)CC(O)c1cccnc1` (stereo not given), the GI50 was 5.18 µM (inactive) in the assay with LOX IMVI; 2.04 µM (inactive) with HCT-116; 14.8 µM (inactive) in the assay with IGROV-1; 24 µM (inactive) in the assay with NCI/ADR-RES; 14.2 µM (inactive) in the assay with M14; 16.5 µM (inactive) in the assay on U-251. The GI50 was 16.6 µM (inactive) with UACC-62; 4.97 µM (inactive) in the assay with SW-620; 20.9 µM (inactive) in the assay with EKVX; 14.1 µM in the assay with HCT-15; 17.4 µM (inactive) in the assay with UO-31; 11.1 µM (inactive) in the assay with KM12. Besides, the GI50 with HT-29 is 7.05 µM (inactive); in the assay on SNB-19, 21.7 µM (inactive); in the assay on MDA-MB-435, 16.4 µM (inactive); in the assay on SK-MEL-28, 19.5 µM (inactive); in the assay on BT-549 it was 11.7 µM (inactive); with MOLT-4, 3.49 µM (inactive). For the same compound, the values for the GI50 in the assay with HOP-92 and with TK-10 were 17.4 µM (inactive) and > 55.1 µM (inactive), respectively.
In the case of `C/C(=N/O)c1cccc(Nc2nc3ccccc3c3[nH]c4ccccc4c23)c1`, the GI50 was 2.22 µM (inactive) with LOX IMVI; 1.16 µM (inactive) in the assay on HCT-116; 3.19 µM (inactive) in the assay with IGROV-1; 2.99 µM (inactive) in the assay on NCI/ADR-RES; 2.6 µM (inactive) in the assay on M14; 3.16 µM (inactive) with U-251. The GI50 in the assay with UACC-62 is 2.28 µM (inactive); in the assay on SW-620 it was 1.63 µM (inactive); with EKVX it was 2.29 µM (inactive); in the assay with HCT-15, 2.36 µM; with UO-31 it was 2.88 µM (inactive); with KM12 it was 2.58 µM (inactive). Moreover, the GI50 in the assay on HT-29 is 1.57 µM (inactive); with SNB-19, 4.08 µM (inactive); with MDA-MB-435, 2.5 µM (inactive); in the assay on SK-MEL-28, 3.6 µM (inactive); with BT-549, 12.8 µM (inactive); in the assay with MOLT-4, 0.879 µM (active). The results for the GI50 in the assay with HOP-92 and in the assay with TK-10 were 2.51 µM (inactive) and 4.6 µM (inactive), respectively.
Turning to `N=C(N)N/N=C/c1c(-c2ccc(Cl)c([N+](=O)[O-])c2)nc2sc(Cl)cn12`, the GI50 was 2.44 µM (inactive) with LOX IMVI; 3.38 µM (inactive) in the assay on HCT-116; 1.65 µM (inactive) in the assay on IGROV-1; 46 µM (inactive) with NCI/ADR-RES; 2.79 µM (inactive) with M14; 2.95 µM (inactive) in the assay on U-251. For the same compound, the GI50 is 1.95 µM (inactive) in the assay with UACC-62; 2.2 µM (inactive) with SW-620; 2.83 µM (inactive) in the assay with EKVX; 2.29 µM with HCT-15; 1.84 µM (inactive) in the assay on UO-31; 2.56 µM (inactive) in the assay on KM12. The GI50 was 2.36 µM (inactive) in the assay on HT-29; 1.79 µM (inactive) in the assay with SNB-19; 2.25 µM (inactive) in the assay with MDA-MB-435; 1.94 µM (inactive) in the assay on SK-MEL-28; 1.69 µM (inactive) in the assay with BT-549; 1.63 µM (inactive) with MOLT-4. Moreover, the results for the GI50 in the assay on HOP-92 and in the assay on TK-10 were 1.67 µM (inactive) and 28.8 µM (inactive), respectively.
For `CC(C)/C(Cl)=N\OC(=O)Nc1ccc(C#N)cc1`, the GI50 in the assay with LOX IMVI was 3.3 µM (inactive); in the assay with HCT-116, 5 µM (inactive); with IGROV-1 it was 17.6 µM (inactive); in the assay on NCI/ADR-RES it was 17.1 µM (inactive); with M14 it was 3.01 µM (inactive); in the assay on U-251, 18 µM (inactive). Besides, the GI50 was 17 µM (inactive) in the assay with UACC-62; 1.81 µM (inactive) in the assay with SW-620; 2.58 µM (inactive) in the assay with EKVX; 10.5 µM in the assay with HCT-15; 9.02 µM (inactive) in the assay on UO-31; 15.8 µM (inactive) in the assay with KM12. The GI50 in the assay on HT-29 is 21 µM (inactive); in the assay with SNB-19, 18.3 µM (inactive); with MDA-MB-435, 8.04 µM (inactive); in the assay with SK-MEL-28, 12.1 µM (inactive); with BT-549, 13.7 µM (inactive); in the assay on MOLT-4 it was 1.92 µM (inactive). Also, the GI50 with HOP-92 is 1.56 µM (inactive); in the assay with TK-10, 5.35 µM (inactive).
